For one data set, the system named is PAPD5. Nature of the data set: CRISPR/Cas9 genome targeting of PAPD5 in PARN mutant iPSCs, lentiviral gRNA. In kind it is cell-based, human. The method, then:
(§1) Experiments were performed to determine the requirement of PARN and PAPD5 for viability and function of human stem cells. CRISPR/Cas9 genome targeting was performed to create biallelic null mutations. Lentiviral vectors containing guide RNAs (gRNAs; Table 15) to PARN or PAPD5 were designed and used to transduce normal (WT) and PARN mutant induced pluripotent stems (iPSCs), and the frequency of insertion/deletions (indels) were assessed. […] Populations of stable lentiviral transduced PARN or PAPD5 targeted iPSCs were subcloned to identify lines with biallelic inactivation of PARN or PAPD5. […] In contrast, iPSCs with indels causing frameshifts in PAPD5 and lacking PAPD5 protein could be isolated (FIG. 23). Inactivation of PAPD5 by CRISPR/Cas9 augmented TERC levels in iPSC clones (FIG. 24).

The target in the next data set is recombinant PAPD5 (Homo sapiens, UniProt Q8NDF8). Description: Inhibition of recombinant PAPD5 by aminoglycosides. In kind it is biochemical. To be noted: 10 μM each; FIG. 26. As to the method:
FIG. 26 is a graph showing inhibition of recombinant PAPD5 by aminoglycosides.
Experiments were performed to determine whether aminoglycosides can be used to inhibit PAPD5. 10 μM each of the following are used, (1) Kanamycin B sulfate; (2) Apramycin sulfate; (3) Spectinomycin dihydrochloride pentahydrate; and (4) Ribostamycin sulfate.

The test system of a further data set is human PAPD5. Description: PAPD5 shRNA knockdown in PARN deficient HEK 293 cells: 3' RACE deep sequencing and Northern blot of TERC. To be noted: Northern blot, normal and PARN deficient HEK 293 cells, FIG. 11G, FIG. 18. In kind it is cell-based. From the text:
short-hairpin RNA (shRNA) constructs. Duplex oligonucleotides encoding shRNA targeting human PAPD5 (ENA accession: FR872509) or luciferase control (Table 13) were cloned into the pLKO.1-puro vector and pLKO.1-blast vectors (Addgene #10878 and #26655). shRNA constructs targeting human PARN (NM_002582) were as described, e.g., in Moon, Diane H., et al. “Poly (A)-specific ribonuclease (PARN) mediates 3 [prime]-end maturation of the telomerase RNA component.” Nature genetics 47.12 (2015): 1482-1488.
Viral vector production and transduction. […]. Lentiviral particles were produced by co-transfection of HEK 293T cells with lentiviral vectors, pCMV_dR8.91 and pCMV_VSV-G. For knockdown and overexpression experiments, HEK 293 cells, fibroblasts and iPSCs were transduced with viral vectors in the presence of protamine sulfate (10 μg/ml) for 8-12 hours. For TERC and DKC1 experiments, transduced HEK 293 cells and fibroblasts were sorted for mCherry or EGFP expression and cultured without further selection. […]
Formaldehyde/agarose gel electrophoresis. […] Quantification was performed using ImageJ. […]
TERC RNA 3′ ends were profiled as described in e.g., Moon, Diane H., et al. “Poly (A)-specific ribonuclease (PARN) mediates 3 [prime]-end maturation of the telomerase RNA component.” Nature genetics 47.12 (2015): 1482-1488. […] Reads mapping to the TERC gene were analyzed using custom developed Perl scripts.

A further data set deals with human TRF4-2. Nature of the data set: Lentiviral shRNA knockdown of TRF4-2 (PAPD5) in fibroblasts and patient-derived cells. In kind it is cell-based. From the text: Short-hairpin RNA (shRNA) constructs. Duplex oligonucleotides encoding shRNA targeting human TRF4-2 (ENA accession number: FR872509) and human PARN (NM_002582) or luciferase control (Table 6) were cloned into the pLKO.1-puro vector (Addgene #10878), and pLKO.1-blast vector (Addgene #26655). Lentiviral vector production and transduction of cells.
Lentiviral vectors encoding shRNAs were produced by co-transfection of 293 cells with lentiviral plasmids described above, pCMV_dR8.91 and pCMV_VSV-G, using branched polyethylenimine (Sigma). Supernatants were harvested, filtered and frozen in aliquots on days 3-4 following transfection. For knockdown experiments, cells were transduced with lentivirus and harvested 6 days after selection in puromycin (2 μg/ml for 293 cells; 0.2 μg/ml for iPS cells) or blasticidin (10 μg/ml for 293 cells).

The test system of a further data set is human PARN. Description: PARN shRNA knockdown in 293 cells: 3' RACE and deep sequencing of TERC 3' ends. In kind it is cell-based. To be noted: versus control shRNA, FIG. 8. The method, then:
600 ng of total RNA was ligated to 5 μM of 5′-adenylated, 3′-blocked adapter (Universal miRNA cloning linker, New England Biolabs, Ipswich, Mass.) with 280 units of T4 RNA ligase truncated KQ (New England Biolabs, Ipswich, Mass.), 25% PEG 8000, and 1 μl RNaseOUT (Life Technologies, Carlsbad, Calif.) in a 20 μl reaction at 25 degrees C. for 16-24 hr. After cleanup with RNA Clean and Concentrator columns (Zymo Research, Irvine, Calif.), followed by DNase treatment, cDNA was synthesized with 5 pmol of universal RT primer and SuperScript III. […] PCR products were directly analyzed run on 2.5% agarose gels to visualize mature and extended TERC transcripts, or subject to Qiaquick PCR purification columns (Qiagen, Hilden, Germany) for library preparation for deep sequencing. […]
RACE products were prepared for deep sequencing using the TruSeq Nano DNA LT Library Prep Kit (Illumina, San Diego, Calif.). […] The quality and quantity of each library was determined on an Advanced Analytical Fragment Analyzer. […] The reads were de-multiplexed with CASAVA 1.8.2 and the read 1 and read 2 fastq files for each sample were generated. For data analysis, the Illumina adapter sequence was first removed from the end of each read using Trimmomatic50. […] The joined-reads from each sample were then mapped to the TERC gene (NR_001566; SEQ ID NO: 99) with the Bowtie2 mapper52, and outputted to a SAM file. […]

In a further data set the test system is PARN. Nature of the data set: CRISPR/Cas9 genome targeting of PARN in normal (WT) iPSCs, lentiviral gRNA. Format: cell-based, human. The method, then: as §1

We go through nine molecules from patent US11220689B2, “Modulators of telomere disease” (Children's Medical Center Corporation, priority 2015, dated 2022).

Chain of recombinant PAPD5 (Q8NDF8 whole entry): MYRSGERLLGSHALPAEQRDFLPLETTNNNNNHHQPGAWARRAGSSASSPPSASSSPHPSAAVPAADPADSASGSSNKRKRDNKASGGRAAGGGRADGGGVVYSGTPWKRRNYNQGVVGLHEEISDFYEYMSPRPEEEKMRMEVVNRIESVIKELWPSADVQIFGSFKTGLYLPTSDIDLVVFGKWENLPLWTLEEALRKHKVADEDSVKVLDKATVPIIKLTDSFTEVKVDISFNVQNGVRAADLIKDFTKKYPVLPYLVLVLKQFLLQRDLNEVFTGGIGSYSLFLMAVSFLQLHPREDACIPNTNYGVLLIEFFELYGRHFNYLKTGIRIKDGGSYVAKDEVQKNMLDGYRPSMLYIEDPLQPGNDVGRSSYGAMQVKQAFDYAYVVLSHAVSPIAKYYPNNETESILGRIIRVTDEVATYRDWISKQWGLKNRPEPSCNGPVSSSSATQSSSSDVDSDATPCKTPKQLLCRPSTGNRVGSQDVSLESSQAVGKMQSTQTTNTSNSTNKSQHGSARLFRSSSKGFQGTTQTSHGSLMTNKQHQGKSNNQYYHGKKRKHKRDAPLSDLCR

With “gRNA 451: guide RNA targeting PAPD5 for CRISPR/Cas9, SEQ ID NO: 88 (target + PAM), 89 (guide CCTCTTGTTGCTGCTGCCCG; listed as DNA, chemistry not given here)”, in the data set on PAPD5 (PAPD5 gRNAs), the “frequency of insertion/deletions (indels)” value is given as “highest frequency of indels”. Moreover, in the data set with PAPD5 (PARN mutant cells, qPCR, FIG. 21A), the PAPD5 transcript levels entry is “reductions”. Further, the “TERC RNA levels” value in the data set with PAPD5 (PARN mutant cells, qPCR, FIG. 21B) was “increases”.
Regarding `NC[C@H]1O[C@H](O[C@H]2[C@H](O[C@@H]3O[C@H](CO)[C@@H](O)[C@H]3O)[C@@H](O)[C@H](N)C[C@@H]2N)[C@H](N)[C@@H](O)[C@@H]1O.O=S(=O)(O)O` [Ribostamycin sulfate], the “inhibition of PAPD5” value at recombinant PAPD5 is given as “can inhibit PAPD5”.
For “PAPD5 shRNA2: lentivirus-encoded shRNA targeting human PAPD5, SEQ ID NO: 79 in Table 13 (CCGGGCCACATATAGAGATTGGATACTCGAGTATCCAATCTCTATATGTGGCTTTTTG)”, the “steady state levels of TERC transcripts” value in the data set with human PAPD5 is recorded as “increased”. Also, in the data set on human TRF4-2, the TERC levels entry is “restored the TERC levels” and the “knock-down of PAPD5” value is “knocked-down PAPD5 to significant levels”.
Turning to “PARN shRNA1: lentivirus-encoded shRNA directed against PARN (3' untranslated region), SEQ ID NO: 74 (DNA CCGGCCGCACTGTATTTAACTTAATCTCGAGATTAAGTTAAATACAGTGCGGTTTTTG)”, in the data set with human PARN, the “levels of mature TERC” value was “diminished levels of mature TERC” and the “oligo(A) forms of TERC” value is “increased oligo(A) forms”.
With `NC[C@H]1O[C@H](O[C@H]2[C@H](O)[C@@H](O[C@H]3O[C@H](CO)[C@@H](O)[C@H](N)[C@H]3O)[C@H](N)C[C@@H]2N)[C@H](N)[C@@H](O)[C@@H]1O.O=S(=O)(O)O` [Kanamycin B sulfate], the “inhibition of PAPD5” value on recombinant PAPD5 was “can inhibit PAPD5”.
`CN[C@@H]1[C@H](O)[C@H](NC)[C@H]2O[C@@]3(O)C(=O)C[C@@H](C)O[C@H]3O[C@@H]2[C@H]1O.Cl.Cl.O.O.O.O.O` [Spectinomycin dihydrochloride pentahydrate]: the “inhibition of PAPD5” value at recombinant PAPD5 is “can inhibit PAPD5”.
Regarding Apramycin sulfate, the “inhibition of PAPD5” value at recombinant PAPD5 is on record as “can inhibit PAPD5”.
Turning to “PARN gRNA 91: guide RNA targeting PARN for CRISPR/Cas9, SEQ ID NO: 94 (target + PAM), 95 (guide TGAAGTGTTAGGAGATACAT; listed as DNA, chemistry not given here)”, in the data set on PARN, the “frequency of insertion/deletions (indels)” value is recorded as “high frequency of indels”. In addition, in the data set on PARN (qPCR, FIG. 20A), the “PARN RNA transcript levels” value is “reductions”. The “TERC RNA levels” value in the data set with PARN (qPCR, FIG. 20B) was “reductions”.
Regarding “PAPD5 shRNA1: lentivirus-encoded shRNA targeting human PAPD5, SEQ ID NO: 83 in Table 13 (CCGGCGATGTTGGAAGGAGTTCATACTCGAGTATGAACTCCTTCCAACATCGTTTTTG)”, in the data set on human PAPD5, the “steady state levels of TERC transcripts” value is on record as “increased”. In the data set with human TRF4-2, the TERC levels entry was “restored the TERC levels” and the “knock-down of PAPD5” value was “knocked-down PAPD5 to significant levels”.
